# Data reported in patent US11660310B2, “Low dose combination CDA substrate drug/cedazuridine with extended administration” (Otsuka Pharmaceutical Co., Ltd., priority 2018, dated 2023).
# Columns and labels:
# [1] = system: sickle cell disease model; conditions: sickle cell disease model in baboons; Am. J. Hematol. 1985; cited from earlier work
# clinical = conditions: human, in vivo, iv, 20 mg/m2, 5-Days total (AUClast) IV
AUC(0-t) (clinical) [ng·h/mL],SMILES,effect on the potency of decitabine [1]
–,O=C1NC(O)CCN1[C@@H]1O[C@H](CO)[C@@H](O)[C@H]1O (some centres unmarked) [Tetrahydrouridine],improve the potency of decitabine
852,"Nc1ncn([C@H]2C[C@H](O)[C@@H](CO)O2)c(=O)n1 [decitabine, 5-aza-2′-deoxycytidine]",–
